These are literature values, as cited in patent US20210319872A1, “DRUG AND DEVICE COMBINATION PRODUCTS WITH IMPROVED SAFETY AND EFFICACY PROFILES” (priority 2016, published 2021).

For series [1] the following is noted: in vivo.
The conditions of series [2]: patients who had been started on the drug.
The conditions of series [3]: older adults.
Series [4] has as its system subjects. The note with it: 16 subjects after 15-mg dose, pilot and main studies, FIG. 31 B.

Regarding `O=C(O)Cc1ccccc1Nc1c(Cl)cccc1Cl` [Zorvolex], in series [1], the Constipation entry is given as “Gastrointestinal: Constipation (5% to 8%), Diarrhea (6%), Nausea”; the Diarrhea result was “Gastrointestinal: Constipation (5% to 8%), Diarrhea (6%), Nausea”; the Headache entry is recorded as “Neurologic: Headache (4% to 8%)”; the Nasopharyngitis result is listed as “Respiratory: Nasopharyngitis (6%), Sinusitis (3% to 5%), Upper”. For the same compound, in series [1], the Nausea entry is listed as “(6% to 7%)”; the “Serious side effect, Cardiovascular” value is given as “Cardiovascular: Myocardial infarction, Thrombosis”; the “Serious side effect, Gastrointestinal” value is on record as “Gastrointestinal: Gastrointestinal hemorrhage, Gastrointestinal”; the “Serious side effect, Immunologic” value is “Immunologic: Anaphylactoid reaction”. Besides, in series [1], the “Serious side effect, Neurologic” value is on record as “Neurologic: Cerebrovascular accident”; the “Serious side effect, Renal” value is recorded as “Renal: Acute renal failure”; the “Serious side effect, Respiratory” value is given as “Respiratory: Bronchospasm”; the Sinusitis result is on record as “Respiratory: Nasopharyngitis (6%), Sinusitis (3% to 5%), Upper”. In series [1], the Upper respiratory infection result is reported as “respiratory infection (8%)” and the “Urinary tract infectious disease” value is on record as “Renal: Urinary tract infectious disease (7%)”.

For the compound `CC(=O)O[C@H]1CC[C@@]2(C)C(=CC[C@@H]3[C@@H]2CC[C@]2(C)C(c4cccnc4)=CC[C@@H]32)C1` [Zytiga], in series [1], the ALT/SGPT level raised result is reported as “Hepatic: ALT/SGPT level raised (11.1% to 41.9%), AST/SGOT”; the AST/SGOT level raised result was “level raised (30.6% to 37.3%), Serum bilirubin raised (6.6%)”; the Adrenal insufficiency result is “Endocrine metabolic: Adrenal insufficiency (0.5%), Hypokalemia”; the Alkaline phosphatase raised result is “Hepatic: Alkaline phosphatase raised (Greater than 20%)”. In series [1], the Anemia entry is on record as “Hematologic: Anemia (Greater than 20%), Lymphocytopenia, All”; the Cardiac dysrhythmia entry is on record as “Cardiovascular: Cardiac dysrhythmia (7.2%), Cardiorespiratory”; the Contusion result is given as “Dermatologic: Contusion (13.3%), Flushing (19% to 22.3%)”; the Cough entry is reported as “Respiratory: Cough (10.6% to 17.3%), Dyspnea (11.8%)”. In series [1], the Dyspnea entry was “Respiratory: Cough (10.6% to 17.3%), Dyspnea (11.8%)”; the Fatigue result was “Other: Fatigue (39.1%)”; the Flushing result is recorded as “Dermatologic: Contusion (13.3%), Flushing (19% to 22.3%)”; the Hypercholesterolemia entry is on record as “Endocrine metabolic: Hypercholesterolemia (Greater than 20%),”. Also, in series [1], the Hyperglycemia result was “Hyperglycemia (56.6%), Hypertriglyceridemia (62.5%),”; the Hypertriglyceridemia entry is reported as “Hyperglycemia (56.6%), Hypertriglyceridemia (62.5%),”; the Hypokalemia result is “(17.2% to 28.3%)”; the Hypophosphatemia result is given as “Hypophosphatemia (23.8%)”. Moreover, in series [1], the Joint swelling entry was “Musculoskeletal: Joint swelling (29.5% to 30.3%)”; the “Lymphocytopenia, All grades” value is recorded as “grades (38.2%)”; the “Lymphocytopenia, Grade 3 or 4” value is “Hematologic: Lymphocytopenia, Grade 3 or 4 (8.7%)”; the Serum bilirubin raised result is on record as “level raised (30.6% to 37.3%), Serum bilirubin raised (6.6%)”. Further, in series [1], the “Urinary tract infectious disease” value is “Renal: Urinary tract infectious disease (11.5%)”.

Regarding `COc1ccccc1OCCNCC(O)COc1cccc2[nH]c3ccccc3c12` (stereo not drawn) [carvedilol, Common brand names - Coreg*], in series [1], the Abnormal weight gain entry was “Endocrine metabolic: Abnormal weight gain (10% to 12%),”; the Atrioventricular block entry was “Cardiovascular: Atrioventricular block (greater than 1% to 3%)”; the Bradyarrhythmia result was “Cardiovascular: Bradyarrhythmia (3% to 10%), Hypotension (1.8%”; the Diarrhea result is reported as “Gastrointestinal: Diarrhea (2% to 12%)”. In series [1], the Dizziness entry is “Neurologic: Dizziness (6% to 33%)”, the Erectile dysfunction entry is on record as “Reproductive: Erectile dysfunction (13.5%)”, the Fatigue result is “Other: Fatigue (24%)” and the Hyperglycemia result was “Hyperglycemia (5% to 12%)”. Besides, the Hypotension entry in series [1] was “Cardiovascular: Bradyarrhythmia (3% to 10%), Hypotension (1.8%”.

On to `CC[C@H]1OC(=O)[C@H](C)[C@@H](O[C@H]2C[C@@](C)(OC)[C@@H](O)[C@H](C)O2)[C@H](C)[C@@H](O[C@@H]2O[C@H](C)C[C@H](N(C)C)[C@H]2O)[C@](C)(OC)C[C@@H](C)C(=O)[C@H](C)[C@@H](O)[C@]1(C)O` [clarithromycin], for which the “Digoxin toxicity, times more likely” value in series [2] is on record as 12 times.

For `[Li]` [lithium], in series [3], the clearance rate result is reported as “reduced”.

For `CN1CC[C@]23c4c5ccc(O)c4O[C@H]2[C@@H](O)C=C[C@H]3[C@H]1C5` [morphine, reference compound], in series [1], the “Drowsiness or Sedation” value is “severe sedation and drowsiness”.

In the case of `COc1ccc2c3c1O[C@H]1C(=O)CC[C@@]4(O)[C@@H](C2)N(C)CC[C@]314` [oxycodone, reference compound], in series [1], the Abdominal pain result is “Gastrointestinal: Abdominal pain (up to 5%), Constipation (Adults,”; the Chest pain result is “Cardiovascular: Cardiac arrest, Chest pain (less than 1%), Heart”; the Fever entry is “Other: Fever (Adults, up to 5%; pediatrics, 11%)”; the Headache entry is given as “(Adults, 3% or greater; pediatrics, 14%), Somnolence (controlled-”. In series [1], the Heart failure entry is “failure (less than 3%), Hypotension (less than 3%), Shock, ST”; the Hypersensitivity reaction result is recorded as “Immunologic: Hypersensitivity reaction (less than 3%)”; the Hypotension entry is reported as “failure (less than 3%), Hypotension (less than 3%), Shock, ST”; the Opioid withdrawal entry is reported as “Opioid withdrawal (1% to 5%)”. In series [1], the ST segment depression entry is listed as “segment depression (less than 1%), Syncope (less than 1%)”; the “Serious side effect, Gastrointestinal” value is on record as “Gastrointestinal: Bowel obstruction, Diverticulitis, Exacerbation”; the “Serious side effect, Other” value was “Other: Drug withdrawal syndrome in neonate of dependent mother,”; the “Serious side effect, Respiratory” value was “Respiratory: Respiratory depression”. In series [1], the Somnolence result was “release, 23%; immediate-release, 3% or greater)”; the Sweating entry was “(controlled-release, 5%; immediate-release, less than 3%)”; the Syncope result is on record as “segment depression (less than 1%), Syncope (less than 1%)”. Moreover, in series [4], the “individual time course of pupil diameter” value is listed as “does not move into “pinpoint pupils”, overdose, or mydriasis”.

For the compound Contrave, in series [1], the Amnesia entry was “Neurologic: Amnesia (Less than 2%), Seizure (0.1%)”; the Anxiety entry is listed as “Psychiatric: Anxiety (4.2%)”; the Cholecystitis entry is reported as “Gastrointestinal: Cholecystitis (Less than 2%), Hematochezia (Less”; the Constipation result is given as “Gastrointestinal: Constipation (19.2%), Diarrhea (7.1%), Nausea”. Moreover, in series [1], the Depression entry is “Psychiatric: Depression (6.3% to 7.1%), Mania, Psychiatric”; the Diarrhea entry is recorded as “Gastrointestinal: Constipation (19.2%), Diarrhea (7.1%), Nausea”; the Dizziness result is reported as “Neurologic: Dizziness (9.9%), Headache (17.6%), Insomnia (9.2%)”; the Erythema multiforme result is “Dermatologic: Erythema multiforme (Rare), Stevens-Johnson”. Besides, in series [1], the Headache entry was “Neurologic: Dizziness (9.9%), Headache (17.6%), Insomnia (9.2%)”; the Hypertension entry is “Cardiovascular: Hypertension (3.2%), Increased heart rate,”; the “Infectious disorder of kidney” value is on record as “Renal: Infectious disorder of kidney (Less than 2%), Serum”; the Insomnia entry is given as “Neurologic: Dizziness (9.9%), Headache (17.6%), Insomnia (9.2%)”. In addition, in series [1], the Intervertebral disc prolapse entry was “Musculoskeletal: Intervertebral disc prolapse (Less than 2%)”; the Myocardial infarction entry was “Myocardial infarction (Less than 2%)”; the Nausea entry is reported as “(32.5%), Vomiting (10.7%), Xerostomia (8.1%)”; the Pneumonia entry was “Respiratory: Pneumonia (Less than 2%)”. In series [1], the Seizure result is given as “Neurologic: Amnesia (Less than 2%), Seizure (0.1%)”; the “Serious side effect, Cardiovascular” value is “Cardiovascular: Hypertension (3.2%), Increased heart rate,”; the “Serious side effect, Endocrine metabolic” value is given as “Endocrine metabolic: Hypoglycemia”; the “Serious side effect, Hepatic” value is “Hepatic: Hepatotoxicity”. Moreover, in series [1], the “Serious side effect, Immunologic” value was “Immunologic: Anaphylaxis, Delayed hypersensitivity disorder”; the “Serious side effect, Ophthalmic” value is “Ophthalmic: Angle-closure glaucoma”; the “Serious side effect, Psychiatric” value was “Psychiatric: Depression (6.3% to 7.1%), Mania, Psychiatric”; the Serum creatinine raised entry is on record as “creatinine raised (Less than 2%)”. For the same compound, in series [1], the Stevens-Johnson syndrome entry is recorded as “syndrome (Rare)”; the Suicidal thoughts entry is reported as “symptom, Suicidal thoughts (0.03%)”; the Vomiting entry is reported as “(32.5%), Vomiting (10.7%), Xerostomia (8.1%)”; the Xerostomia entry is “(32.5%), Vomiting (10.7%), Xerostomia (8.1%)”.

Take Nesiritide (Natrecor): in series [1], the “Dizziness (incidence)” value is “Neurologic: Dizziness (2%), Headache (7%)”; the “Headache (incidence)” value was “Neurologic: Dizziness (2%), Headache (7%)”; the “Hypotension (incidence)” value is recorded as “Cardiovascular: Hypotension (4% to 17%)”; the “Nausea (incidence)” value is given as “Gastrointestinal: Nausea (3%)”. In addition, the “Serum creatinine raised (incidence)” value in series [1] is “Renal: Serum creatinine raised (17% to 31.4%)”.
